US8394834B2, “Pyrrolidines as NK3 receptor antagonists” (Hoffman-La Roche Inc., priority 2009, dated 2013)
pKi: −log10 of the molar value.

Key:
schizophrenia = settings: phase II trial, cited from earlier work
[1] = target: T1, recombinant human NK3 receptor (Homo sapiens, UniProt P29371); test: [3H]SR142801 competition binding assay; settings: hNK3 receptor, membranes from HEK293 cells transiently expressing the receptor, [3H]SR142801 radioligand
T1 construct: expressed in transfected cells; host or cells: HEK293 cells (transient expression), membranes
T1 sequence (P29371 1-465): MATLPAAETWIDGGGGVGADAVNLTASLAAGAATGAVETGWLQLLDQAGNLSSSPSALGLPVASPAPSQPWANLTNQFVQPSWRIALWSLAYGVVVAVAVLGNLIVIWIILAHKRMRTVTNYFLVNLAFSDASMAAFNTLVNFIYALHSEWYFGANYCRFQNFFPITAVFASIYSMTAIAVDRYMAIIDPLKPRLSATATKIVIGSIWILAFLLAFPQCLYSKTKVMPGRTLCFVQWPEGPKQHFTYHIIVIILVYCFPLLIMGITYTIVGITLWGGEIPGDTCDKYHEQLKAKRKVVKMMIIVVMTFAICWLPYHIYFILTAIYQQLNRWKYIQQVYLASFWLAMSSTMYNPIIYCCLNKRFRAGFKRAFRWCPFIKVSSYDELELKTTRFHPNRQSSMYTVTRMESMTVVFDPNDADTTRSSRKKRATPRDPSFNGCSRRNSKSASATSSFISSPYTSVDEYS
Procedure: [^3H]SR142801 Competition Binding Assay
hNK3 receptor binding experiment were performed using [^3H]SR142801 (Catalog No. TRK1035, specific activity: 74.0 Ci/mmol, Amersham, GE Healthcare UK limited, Buckinghamshire, UK) and membrane isolated from HEK293 cells transiently expressing recombinant human NK3 receptor. After thawing, the membrane homogenates were centrifuged at 48,000×g for 10 min at 4° C., the pellets were resuspended in the 50 mM Tris-HCl, 4 mM MnCl2, 1 μM phosphoramidon, 0.1% BSA binding buffer at pH 7.4 to a final assay concentration of 5 μg protein/well. For inhibition experiments, membranes were incubated with [^3H]SR142801 at a concentration equal to KD value of radioligand and 10 concentrations of the inhibitory compound (0.0003-10 μM) (in a total reaction volume of 500 μl) for 75 min at room temperature (RT). At the end of the incubation, membranes were filtered onto unitfilter (96-well white microplate with bonded GF/C filter preincubated 1 h in 0.3% PEI+0.3% BSA, Packard BioScience, Meriden, Conn.) with a Filtermate 196 harvester (Packard BioScience) and washed 4 times with ice-cold 50 mM Tris-HCl, pH 7.4 buffer. Nonspecific binding was measured in the presence of 10 μM SB222200 for both radioligands. The radioactivity on the filter was counted (5 min) on a Packard Top-count microplate scintillation counter with quenching correction after addition of 45 μl of microscint 40 (Can berra Packard S. A., Zürich, Switzerland) and shaking for 1 h. Inhibition curves were fitted according to the Hill equation: […]), where nH=slope factor using Excel-fit 4 software (Microsoft). IC50 values were derived from the inhibition curve and the affinity constant (Ki) values were calculated using the Cheng-Prussoff equation Ki=IC50/(1+[L]/KD) where [L] is the concentration of radioligand and KD is its dissociation constant at the receptor, derived from the saturation isotherm. All experiments were performed in duplicate and the mean±standard error (SEM) of the individual Ki values was calculated.

SMILES | activity on positive symptoms of schizophrenia (schizophrenia; altered behaviour, delusion, hallucinations, extreme emotions, excited motor activity, incoherent speech) | activity in the treatment of negative symptoms (schizophrenia; depression, anhedonia, social isolation or memory and attention deficits) | pKi [1]
CC(=O)N(C)C1(c2ccccc2)CCN(CCC[C@]2(c3ccc(Cl)c(Cl)c3)CCCN(C(=O)c3ccccc3)C2)CC1 [SR 142,801, Osanetant] | active | inactive | –
Cc1nnc(N2CCC(C(=O)N3C[C@H]([C@H](C)Oc4ccc(Cl)cn4)[C@@H](c4ccc(Cl)cc4)C3)CC2)o1 [Example 18, {(3S,4R)-3-(4-Chloro-phenyl)-4-[1-((S)-5-chloro-pyridin-2-yloxy)-ethyl]-pyrrolidin-1-yl}-[1-(5-methyl-[1,3,4]oxadiazol-2-yl)-piperidin-4-yl]-methanone] | – | – | 8.51
